Measured values taken from the supplement of paper PMC10307832.

Tests used:
Assay in all cases: relative viability (nuclei count vs DMSO), 5 days (fraction); higher = more cells survive
[1] = compound: CN(c1ncccc1CNc1nc(Nc2ccc3c(c2)CC(=O)N3)ncc1C(F)(F)F)S(C)(=O)=O + CCNC(=O)c1noc(-c2cc(C(C)C)c(O)cc2O)c1-c1ccc(CN2CCOCC2)cc1 [Luminespib] (partner 0.01 µM)
How it was run: (§1)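 Relative viability was taken as the ratio of nuclei in treated wells to nuclei in vehicle wells. Lung cancer cell lines in 1536-well plates received compounds by pin tool one day after seeding, either one drug alone or a fixed anchor-drug dose plus five library-drug doses (not always all listed) in √10 steps. Nuclei were counted on 4× images after 5 days of treatment, and values are medians of duplicate plates.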

[2] = compound: CN(c1ncccc1CNc1nc(Nc2ccc3c(c2)CC(=O)N3)ncc1C(F)(F)F)S(C)(=O)=O + Cc1nc(Nc2ncc(C(=O)Nc3c(C)cccc3Cl)s2)cc(N2CCN(CCO)CC2)n1 [Dasatinib] (partner 0.075 µM)
How it was run: as §1

[3] = compound: CN(c1ncccc1CNc1nc(Nc2ccc3c(c2)CC(=O)N3)ncc1C(F)(F)F)S(C)(=O)=O + COc1cc2c(Oc3ccc(NC(=O)C4(C(=O)Nc5ccc(F)cc5)CC4)cc3F)ccnc2cc1OCCCN1CCOCC1 [Foretinib] (partner 0.25 µM)
How it was run: as §1

[4] = compound: CN(c1ncccc1CNc1nc(Nc2ccc3c(c2)CC(=O)N3)ncc1C(F)(F)F)S(C)(=O)=O + Nc1ncn([C@H]2C[C@H](O)[C@@H](CO)O2)c(=O)n1 [Decitabine] (partner 2 µM)
How it was run: as §1

| Cell Line | relative viability ([1]; first compound 0.01 µM) | relative viability ([1]; first compound 0.03162 µM) | relative viability ([1]; first compound 0.1 µM) | relative viability ([1]; first compound 0.3162 µM) | relative viability ([1]; first compound 1 µM) | relative viability ([2]; first compound 0.01 µM) | relative viability ([2]; first compound 0.03162 µM) | relative viability ([2]; first compound 0.1 µM) | relative viability ([2]; first compound 0.3162 µM) | relative viability ([2]; first compound 1 µM) | relative viability ([3]; first compound 0.01 µM) | relative viability ([3]; first compound 0.03162 µM) | relative viability ([3]; first compound 0.1 µM) | relative viability ([3]; first compound 0.3162 µM) | relative viability ([3]; first compound 1 µM) | relative viability ([4]; first compound 0.01 µM) | relative viability ([4]; first compound 0.1 µM) | relative viability ([4]; first compound 0.3162 µM) | relative viability ([4]; first compound 1 µM) | relative viability ([4]; first compound 0.03162 µM) |
| --- | --- | --- | --- | --- | --- | --- | --- | --- | --- | --- | --- | --- | --- | --- | --- | --- | --- | --- | --- | --- |
| PC-3 [JPC-3] | 0.719 | 0.788 | 0.792 | 0.665 | 0.636 | 0.988 | 0.949 | 0.892 | 0.911 | 0.953 | 1.07 | 1.03 | 0.999 | 1.04 | 0.929 | 0.826 | 0.821 | 0.884 | 0.834 |  |
| PC-14 | 0.233 | 0.15 | 0.192 | 0.176 | 0.236 | 0.211 | 0.191 | 0.14 | 0.211 | 0.158 | 1.01 | 1.04 | 1.01 | 1.07 | 1 | 0.197 | 0.254 | 0.245 | 0.269 | 0.225 |
| RERF-LC-KJ | 1.16 | 1.34 | 1.17 | 1.28 | 1.19 | 0.767 | 0.809 | 0.708 | 0.723 | 0.743 | 0.867 | 1.03 | 0.861 | 0.843 | 0.939 | 0.651 | 0.645 | 0.793 | 0.764 | 0.71 |
| SK-LU-1 | 0.197 | 0.208 | 0.214 | 0.172 | 0.209 | 0.198 | 0.176 | 0.157 | 0.162 | 0.124 | 0.823 | 0.845 | 0.712 | 0.815 | 0.61 | 0.641 | 0.636 | 0.639 | 0.576 | 0.689 |
| SK-MES-1 | 0.782 | 0.813 | 0.809 | 0.788 | 0.673 | 0.236 | 0.262 | 0.132 | 0.171 | 0.163 | 0.905 | 0.919 | 0.817 | 1.01 | 0.868 | 0.441 | 0.465 | 0.36 | 0.363 | 0.467 |
| SW 900 | 0.216 | 0.2 | 0.19 | 0.154 | 0.168 | 0.559 | 0.613 | 0.477 | 0.456 | 0.403 | 0.796 | 0.964 | 0.872 | 0.894 | 0.566 | 0.437 | 0.425 | 0.449 | 0.454 | 0.466 |
| SW 1573 | 0.726 | 0.195 | 0.289 | 0.311 | 0.189 | 0.428 | 0.453 | 0.406 | 0.383 | 0.273 | 0.961 | 0.856 | 0.884 | 1.16 | 0.975 | 0.583 | 0.469 | 0.657 | 0.68 | 0.492 |
| UMC-11 | 0.928 | 0.998 | 0.97 | 1.11 | 0.924 | 0.449 | 0.531 | 0.41 | 0.426 | 0.379 | 0.972 | 1.14 | 0.953 | 1.01 | 0.823 | 0.568 | 0.626 | 0.838 | 0.628 | 0.681 |
